Measured values from publication PMC7356390, “Dehydrozingerone, a Curcumin Analog, as a Potential Anti-Prostate Cancer Inhibitor In Vitro and In Vivo” (Molecules, 2020).

How the values were obtained:
PLS10 cells = test: Cell cycle analysis (Guava cycle assay); type: cell-based, rat; conditions: 48 h
Method: Cells were treated with Cur (0–20 μM) and DZG (0–200 μM) for 48 h. Cells were harvested for analysis of the cell cycle distribution by the Guava cycle (a,b), while cyclin D1 expression was determined by Western blot analysis (c,d). The level of protein expression was quantified by IMAGE J software. Data are presented as mean ± S.D. of three independent experiments. * p < 0.05 and ** p < 0.01 vs. control (one-way ANOVA, Dunnett’s multiple comparisons test, tested groups vs. control group). TEXT PRINTED IN THE PICTURE: (a) Cur: G1: 39.76±7.07 (Cur (μM): 5); S: 15.20±2.22 (Cur (μM): 5); G2/M: 45.02±8.26 (Cur (μM): 5); G1: 43.45±4.60 (Cur (μM): 10); S: 15.45±1.20 (Cur (μM): 10); G2/M: 40.90±6.08 (Cur (μM): 10); G1: 41.00±2.40 (Cur (μM): 15); S: 16.35±2.05 (Cur (μM): 15); G2/M: 42.60±4.67 (Cur (μM): 15); G1: 46.28±4.32 (Cur (μM): 20); S: 13.68±2.05 (Cur (μM): 20); G2/M: 43.10±5.50 (Cur (μM): 20) | (b) DZG: G1: 36.75±0.35 (DZG (μM): 50); S: 16.30±0.71 (DZG (μM): 50); G2/M: 46.95±0.35 (DZG (μM): 50); G1: 36.73±3.41 (DZG (μM): 100); S: 17.17±1.29 (DZG (μM): 100); G2/M: 46.10±2.78 (DZG (μM): 100); G1: 42.88±7.45 (DZG (μM): 150); S: 17.90±1.82 (DZG (μM): 150); G2/M: 39.25±6.13 (DZG (μM): 150); G1: 52.95±7.52 (DZG (μM): 200); S: 16.23±1.02 (DZG (μM): 200); G2/M: 31.00±6.67 (DZG (μM): 200) DOUBTS OF THE COPYIST ABOUT THIS PICTURE: Control columns (panel a: G1: 38.86±4.93, S: 14.52±1.90, G2/M: 46.60±5.74; panel b: G1: 35.93±2.45, S: 15.90±2.11, G2/M: 48.18±2.51) are printed but left out of lines, as Control is not a substance
The PLS10 cells (1.0 × 10^5 cells per well) were plated into a 6-well plate overnight. Then, cells were treated with increasing concentrations of Cur (0–20 µM) or DZG (0–200 µM) in the present of 0.5% DMSO (vehicle control) for the next 48 h. Cell morphology was investigated and photographed under a microscope. The cell cycle distribution was determined using a Guava cycle assay (Guava Technologies, Hayward, CA, USA) according to the manufacturer’s protocols. Briefly, the cells were removed by trypsinization, and the cell suspension was fixed in ice-cold 70% methanol at −20°C. After that, the methanol was removed, and the cells were washed with PBS before being stained with a Guava cycle reagent for 30 min. Cell cycle distribution was determined on a Guava PCA Instrument using Guava®ViacountTM Software (Merck Ltd., Darmstadt, Germany).

[1] = system: cyclin D1 expression in PLS10 cells; test: Western blot analysis of cyclin D1 expression; type: cell-based, rat; conditions: 48 h, p < 0.01 vs control
Method: Cells were treated with Cur (0–20 μM) and DZG (0–200 μM) for 48 h. Cells were harvested for analysis of the cell cycle distribution by the Guava cycle (a,b), while cyclin D1 expression was determined by Western blot analysis (c,d). The level of protein expression was quantified by IMAGE J software. Data are presented as mean ± S.D. of three independent experiments. * p < 0.05 and ** p < 0.01 vs. control (one-way ANOVA, Dunnett’s multiple comparisons test, tested groups vs. control group). […]
Protein concentration was determined using the Bradford method (Thermo Fisher Scientific, Waltham, MA, USA). […]

SMILES	G1 phase cell population (PLS10 cells; Cur 20 µM)	cyclin D1 expression ([1]; 15 and 20 µM)	G1 phase cell population (PLS10 cells; DZG 150 µM)	G2/M phase cell population (PLS10 cells; DZG 150 µM)	G1 phase cell population (PLS10 cells; DZG 200 µM)	G2/M phase cell population (PLS10 cells; DZG 200 µM)	cyclin D1 expression ([1]; 150 and 200 µM)
COc1cc(/C=C/C(=O)CC(=O)/C=C/c2ccc(O)c(OC)c2)ccc1O [Cur, Curcumin]	46%	decreased					
COc1cc(/C=C/C(C)=O)ccc1O [DZG, (E)-4-(4-hydroxy-3-methoxyphenyl)-but-3-en-2-one]			43%	39%	53%	31%	decreased
